Entries after “also recorded” stand apart in the source; their conditions may differ. Square brackets hold non-standard residues; d marks the D form. Ends that are not written are not given here. * marks the point of attachment. S3 = D-Pra clicked to acylated azidolysine-PEG2-biotin, with 5-azido-pentanoic acid; 5FAM = O=C1OC2(c3ccc(O)cc3Oc3cc(O)ccc32)c2ccc(C(=O)*)cc21; 5‑azidopentanoyl = [N-]=[N+]=NCCCCC(=O)*; Lys(N3) = [N-]=[N+]=NCCCC[C@H](N)C(=O)O; Peg2 = PEG spacer (Fmoc-NH-(PEG)2-OH); dPra = C#CC[C@@H](N)C(=O)O; Ahx = NCCCCCC(=O)O
Experiments:
Akt2 [1] = target: T1, Akt2 (Homo sapiens, UniProt P31751); conditions: read-out: equilibrium dissociation constant KD; SPR, Akt2 protein as analyte, 1:1 binding model, 10° C.
Experimental: A Biacore T100 machine was used for SPR experiments. A Streptavidin Chip (Series S, G.E. Healthcare) was conditioned as per manufacturer's recommendation. A stock of 1 mM biotinylated ligand was diluted into HBSP+ Buffer (G.E. Healthcare) to a final concentration of 100 nM and ˜150 RU was immobilized on the chip. Serial dilutions of the Akt2 protein were made in HBSP+ buffer for the experiment with the immobilized N-tL. The solution was flowed over the chip at 50 μL/min. Binding and dissociation were carried out at 10° C. with a contact time of 350 sec, a dissociation time of 390 sec, and a stabilization time of 200 sec, with buffer blanks between each concentration. The response was double corrected, using an unmodified reference flow cell and the response for the 0 concentration of Akt2 on the sample flow cell. The data was fitted to the kinetic Langmuir 1:1 binding model using the Biacore Evaluation software for T100 to calculate the dissociation constant.

Akt = target: T2, Akt (Homo sapiens, UniProt P31751); assay: OVCAR3 lysate pull-down (immunoprecipitation) assay; type: binding; conditions: for immunoprecipitation of Akt from OVCAR3 cell lysate: eluents stained with pan-Akt antibody
T2 construct: endogenous in cells; host or cells: OVCAR3
Experimental: OVCAR3 cells (ATCC) were grown in RPMI-1640 media containing 20% fetal bovine serum. Passage three cells were grown to ˜80% confluence. Cells were lysed with lysis buffer (10 mM Tris-Cl (pH=7.5), 100 mM NaCl, 1% (v/v) Triton X-100, 0.1% SDS (w/v), 0.5% deoxycholate, 1 mM DTT, 1 mM EDTA, 1× PhosStop phosphatase inhibitors (Roche), 1× Complete protease inhibitors (Roche)) and the amount of protein measured using BCA Protein Assay Kit (Pierce Biotechnologies, Inc). Streptavidin-agarose resin solution (EMD) was swelled in TBST (25 mM tris chloride, pH=7.5, 150 mM NaCl, 0.05% Tween-20). Each of the biotinylated ligands was immobilized on the Streptavidin-agarose resin by adding 7.2 μL of 1 mM ligand stock (DMSO) to 10 μL of the swelled streptavidin-agarose resin. For the blank control, the resin was treated with 7.2 μL of 1 mM biotinylated acyl glycine. […] After shaking overnight at 4° C., 50 μM D-biotin was added to the resin to block any remaining sites. The resin was washed with TBST five times, for fifteen minutes each. The resin was then swelled in binding buffer for two hours. To each of the immobilized ligands, 200 μL OVCAR3 cell lysate (1.9 mg/ml) was added. The tubes were shaken at 4° C. for 18 hours. The beads were extensively washed, three times for fifteen minutes in binding buffer, three times (fifteen minutes) in TBST, and three times (fifteen minutes) in TBS to remove unbound proteins. The resin bound proteins were eluted by adding 40 μL of 2×SDS-PAGE sample loading buffer (BioRad) and heating at 95° C. for five minutes. A 1:10 diluted sample of lysate in sample loading buffer was prepared by mixing 1 μL of the sample with 9 μL sample loading buffer and denaturing the sample by heating at 95° C. for five minutes. 10 μL of each sample was loaded on a 12% SDS-PAGE gels (BioRad) and run for 80 minutes at 110 volts. Three identical gels were loaded and run at the same time. One gel was used for Coomassie staining with Coomassie Fluor Orange Protein Gel Stain (Molecular Probes) following the manufacturer's protocol. The two other gels were transferred to nitrocellulose membranes by the semidry transfer method, blocked for two hours at 4° C. with 5% non-fat milk, and treated overnight at 4° C. with a 1:1000 dilution of pan-Akt rabbit monoclonal antibody (Cell Signaling Technology) and a 1:1000 dilution of pS473 Akt rabbit monoclonal antibody (Cell Signaling Technology), respectively, in 0.5% non-fat milk. The membranes were washed and treated for an hour with a 1:10,000 dilution of monoclonal mouse anti-rabbit-HRP secondary antibody (Cell Signaling Technology) in 0.5% milk. After five washes of five minutes each with TBST and one wash of five minutes with TBS, the blots were developed with West Dura ECL substrate (Thermo Scientific) and imaged on film.

Akt2 [2] = target: T1, Akt2; assay: Non-radioactive kinase assay, phosphorylation of GSK-3α/β fusion protein; type: biochemical; design: purchased Abcam; conditions: relative to DMSO control
Experimental: The non-radioactive kinase assay kit for Akt2 was purchased from Cell Signaling. Ligand solutions were made in DMSO. Kinase reactions were set up in 1× kinase buffer (25 mM trisHCl (pH 7.5), 10 mM MgCl2, 0.01% Triton-X, 1× Complete protease inhibitor (Roche), 1× Phosstop phosphatase inhibitor (Roche)), each 25 μL reaction mixture containing 400 ng Akt2, 400 ng GST-GSK-3α/β fusion protein, […] and 0.5 μL of peptide solutions in DMSO or DMSO only. Reactions were allowed to proceed for 30 minutes at 30° C. A reaction mixture was also prepared using a 1:2.5 dilution of anti pS473 antibody (Cell Signaling) in the kinase buffer instead of the peptide ligand or DMSO. The reactions were quenched by adding 12.5 μL of 2×SDS sample loading buffer and heating at 95° C. for five minutes. 10 μL from each sample was loaded on an any kD SDS gel (BioRad) and run for an hour at 110 volts. Following semidry transfer of the gel to a nitrocellulose membrane, the membrane was blocked in 5% nonfat milk/TBST for an hour at 4° C., and treated overnight at 4° C. with a 1:200 dilution of Phospho GSK-3α/β Ser (21/9) rabbit antibody (Cell Signaling) in 0.5% milk/TBST. Following washes, the membrane was treated with a 1:2000 dilution of mouse anti-rabbit-HRP antibody for an hour at 4° C. After four five minute washes with TBST, and one five minute wash with TBS, the membrane was treated with West Dura ECL substrate (Thermo Scientific) and imaged on film.

Akt2 [3] = target: T1, Akt2; assay: Single component ELISA, PCC agent as capture or detection agent (relative affinity); type: binding; design: purchased Abcam
Description: FIG. 23: A. ELISA assays in which the PCC Agents are utilized as either as surface-localized capture agents (for N-tL, C-tL) or as the detection agent (for mono-L, bi-L). Such assays provide relative affinity measurements, which are given as EC50 values in the key. […] C. C-tL distinguishes the full length Akt2 from isoform proteins Akt1 and Akt3. D. The 32 amino acid long C terminal fragment from Akt2, Akt1 and Akt3. The hydrophobic motif is highlighted in blue. pS refers to phospho-serine. […] F. Selectivity assays: Biotinylated ligands or biotinylated pS473 antibody is immobilized on streptavidin-agarose and treated with OVCAR3 cell lysate. The eluents are stained with a pan-Akt antibody or pS473 Akt antibody.
1.25 μM biotinylated ligand was prepared by diluting the 1 mM stock in binding buffer (25 mM tris chloride, pH=7.4, 150 mM NaCl, 0.1% BSA, 0.05% Tween 20). The prepared ligand solution or 0.125% DMSO in buffer (buffer control) was immobilized on a High Capacity Streptavidin 96 well plate (Thermo Scientific). After washing away the excess ligand, the plate was blocked overnight with 1% BSA/25 mM tris chloride, pH=7.4/150 mM NaCl, 0.05% Tween 20. 2.5 μM solutions of the His6 (SEQ ID NO:28) tagged target phosphopeptide epitope Akt2 amino acids 450-481, His6 (SEQ ID NO:28) tagged Akt1 amino acids 449-480, His6 (SEQ ID NO:28) tagged Akt3 amino acids 448-479 were added to each of the wells. Following three washes with the binding buffer, the plate was treated for an hour with a 1:1000 dilution of anti His6 (SEQ ID NO:28) mouse monoclonal antibody. A 1:10,000 dilution of goat anti mouse antibody-Horse Radish Peroxide conjugate in binding buffer was added to the wells. The plates were washed four times, five minutes each, with 0.05% Tween 20/TBS (25 mM tris chloride, pH=7.5, 150 mM NaCl) and once with TBS (25 mM tris chloride, pH=7.5, 150 mM NaCl). Color was developed by adding TMB substrate (KPL) to each well. The reaction was quenched with 0.5 M H2SO4. The A450 measured on a 96-well plate reader. The Net A450 was obtained by subtracting the absorbance value for the blank control (no immobilized ligand) from each of the triplicate values obtained for the ligand-epitope interaction. The selectivity assay with full length His6 (SEQ ID NO:28) tagged Akt1, Akt2 and Akt3 was performed following the same protocol, using 25 nM protein instead of 2.5 μM His6 tagged peptide epitope.

OVCAR3 cells = assay: XTT cell viability assay; type: cell-based; conditions: 50 μM
Experimental: (§1) The XTT assay kit was purchased from Cell Signaling Technology (#9095) and used according to manufacturer protocol. Briefly, 1×10^4 cells were seeded in a 96-well plate. The following day, cells were serum starved and treated with capture agent. Following treatment, the XTT tetrazolium salt was added to the media and after 1 hour the absorbance at 450 nm was measured in a 96-well plate reader.

SKOV3 cells = assay: XTT cell viability assay; type: cell-based; conditions: 50 μM
Experimental: as §1

[4] = test system: SKOV3 ovarian cancer cells; assay: Western blots of treated SKOV3 cells (Akt signaling pathway); type: cell-based
Experimental: Western blots were performed according to standard protocols. Briefly, cells were lysed with cell lysis buffer (Cell Signaling Technology) containing protease and phosphatase inhibitors (Cell Signaling Technology). Cell lysates were quantified with a Bradford protein assay (Thermo Scientific) and prepared for gel electrophoresis in Laemmli sample buffer and reducing agent. 20 μg of cell lysate were added to precast polyacrylamide gels (Bio-Rad) and proteins were separated by electrophoresis followed by transfer to PVDF membrane. Membranes were then blocked and probed with primary antibodies followed by horseradish peroxidase-conjugated secondary antibodies. The following antibodies were used according to manufacturer protocol: p-GSK3β (Cell Signaling, 9323), GSK3 β (Cell Signaling, 12456), AKT (Cell Signaling, 4691), p-AKT (S473) (Cell Signaling, 4060), Actin (Cell Signaling, 8456), HRP-linked Anti-rabbit IgG (Cell Signaling, 7074). The bands were visualized by chemiluminescence (Thermo Scientific).

T1 sequence (P31751 whole entry): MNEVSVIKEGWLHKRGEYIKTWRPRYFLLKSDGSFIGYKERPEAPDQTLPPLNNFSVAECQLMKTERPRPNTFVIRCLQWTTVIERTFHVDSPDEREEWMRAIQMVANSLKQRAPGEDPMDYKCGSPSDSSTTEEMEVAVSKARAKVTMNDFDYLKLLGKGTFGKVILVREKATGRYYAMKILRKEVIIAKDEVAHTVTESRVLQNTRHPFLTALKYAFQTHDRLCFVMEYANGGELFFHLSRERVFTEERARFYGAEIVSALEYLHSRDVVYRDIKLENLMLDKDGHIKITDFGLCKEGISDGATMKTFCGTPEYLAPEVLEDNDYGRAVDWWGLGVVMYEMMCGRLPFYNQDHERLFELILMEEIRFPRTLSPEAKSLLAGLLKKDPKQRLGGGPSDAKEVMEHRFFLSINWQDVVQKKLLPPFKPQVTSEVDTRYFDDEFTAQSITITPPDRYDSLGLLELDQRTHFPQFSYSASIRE
T2 sequence (P31751 whole entry): as above

Molecule	Kd (Akt2 [1]) [nM]	immunoprecipitation of phosphorylated Akt from OVCAR3 cell lysate (Akt; eluents stained with pS473 Akt antibody)	immunoprecipitation of Akt from OVCAR3 cell lysate (Akt)	immunoprecipitation of Akt from OVCAR3 cell lysate (Akt; listed as N-tri1)	influence on Akt2 kinase activity (p-GSK-3α/β level) (Akt2 [2])	EC50 (Akt2 [3]; read-out: EC50 from single component ELISA) [nM]	affinity (Akt2 [3]; strongest binding triligand) [nM]	cell viability (XTT) (OVCAR3 cells)	cell viability (XTT) (SKOV3 cells)	p-Akt level ([4]; 50 μM, time course)	p-GSK-3β level ([4]; 50 μM, time course)	phospho-GSK-3β level after pretreatment and EGF stimulation ([4]; 50 μM, 1, 6 and 12 hours pretreatment, then EGF 10 minutes)	phospho-GSK-3β level after pretreatment and EGF stimulation ([4]; 50 μM, 24 hours pretreatment, then EGF)
CC(=O)NC(CCCCn1cc(C[C@@H](NC(=O)[C@H](CCCCn2cc(C[C@@H](NC(=O)[C@@H](Cc3ccccc3)NC(=O)[C@@H](Cc3ccc(O)cc3)NC(=O)CNC(=O)[C@@H](CC(N)=O)NC(=O)[C@@H](Cc3c[nH]cn3)NC(=O)[C@H](CCCCn3cc(C[C@@H](NC(C)=O)C(=O)N[C@H](Cc4ccc(O)cc4)C(=O)N[C@H](Cc4ccc(O)cc4)C(=O)N[C@H](CCCNC(=N)N)C(=O)N[C@H](Cc4ccccc4)C(=O)NCC(N)=O)nn3)NC(C)=O)C(=O)O)nn2)NC(C)=O)C(=O)N[C@H](Cc2c[nH]c3ccccc23)C(=O)N[C@H](CCCCN)C(=O)N[C@@H](C(=O)N[C@H](CCCCN)C(=O)N[C@H](CC(C)C)C(N)=O)C(C)C)nn1)C(=O)NCCOCCOCCOCCC(=O)NCCNC(=O)CCCC[C@@H]1SC[C@@H]2NC(=O)N[C@@H]21 (some centres unmarked) [N-tL]	25	immunoprecipitate comparable amounts of active pS473 Akt	immunoprecipitates more Akt, irrespective of its phosphorylation state	more efficient; also recorded: immunoprecipitate Akt2 from OVCAR3 cells	activate Akt above baseline; also recorded: activate Akt2	19	~20	–	–	–	–	–	–
tri_a: Akt-activating N-terminal triligand, conjugated to HIV TAT peptide via PEG spacers for cell assays (FIG. 28, 33A) (peptide 1 WKVKL; peptide 2 HNGYF; peptide 3 XYYRFG; peptide 4 GRKKRRQRRRPPQQ; not fully specified; D-residues; non-natural residues)	–	–	–	–	activate	–	–	significant increase in viability after 1 day treatment followed by a decline; also recorded: sharp increase after 24 hours is followed by a steady decrease before finally stabilizing	significant increase in viability after 1 day treatment followed by a decline; also recorded: initial spike in cell viability after 24 hours, followed by a linear decrease with time	initially increases and then steadily decreases over time	highest level of GSK3B phosphorylation is seen after 1 hour treatment; also recorded: clear increase in the p-GSK-3β level relative to the untreated and EGF-stimulated cells	–	–
tri_i: Akt-inhibiting C-terminal triligand, TAT-modified, with fluorescein label (FIG. 31, 35a) (peptide 1 Ac-[Lys(N3)][dH][dD]GG[dF]; peptide 2 S3-[dW][dK][dV][dK]; peptide 3 {5FAM-Ahx-Cys-Peg2}-[dH][dN]G[dY][dF][dPra]; peptide 4 {5‑azidopentanoyl-Peg2}-GRKKRRQRRRPPQQ-NH2; not fully specified (C-terminus); also: arms joined by triazoles, fluorescein label (Peg2-Cys-Ahx-5-carboxyfluorescein) coupled via DBCO-maleimide to TAT)	–	–	–	–	inhibit	–	–	significant decrease in viability after 1 day treatment; also recorded: initial drop in cell viability after 24 hours, followed by an increase before finally decreasing again	significant decrease in viability after 1 day treatment; also recorded: initial drop in cell viability and remain consistently lower than untreated cells for 5 days	–	–	less phospho-GSK-3β than EGF stimulation alone; also recorded: less phospho-GSK3-β than untreated cells stimulated with EGF alone	dramatic increase in levels of phospho-GSK3-β
